Laboratory results from patent US12528818B2, “Compositions and methods for inhibition of RAS” (Leidos Biomedical Research, Inc., priority 2021, dated 2026).
pIC50: −log10 of the molar value.

Tested on: pERK in NCI-H358 cells
Assay: Cell-based pERK HTRF assay (pERK inhibition in H358 cells)
Conditions: Homo sapiens, NCI-H358, 0.5 h, pERK inhibition IC50, NCI-H358 cells, 30 min incubation; read-out: PERK in H358 cell

Row | pIC50 | SMILES
1 | > 7.00 | C=CC(=O)N1C[C@H](N(C)c2nc(OC[C@@]34CCCN3C[C@H](F)C4)nc3cc(-c4ccc(F)c5sc(N)nc45)c(C(F)(F)F)cc23)C[C@H]1C [Compound 309]
2 | > 7.00 | C=CC(=O)N1CCN(c2nc(OC[C@@]34CCCN3C[C@@H](F)C4)nc3c(F)c(-c4ccc(F)c5sc(N)nc45)c(C(F)(F)F)cc23)[C@@H](C)C1 [Compound 218]
3 | > 7.00 | C=CC(=O)N1C[C@H](C)N(c2nc(OC[C@@]34CCCN3C[C@H](F)C4)nc3c(F)c(-c4ccc(F)c5sc(N)nc45)c(C(F)(F)F)cc23)C[C@H]1C [Compound 202, 1-((2R,5S)-4-(7-(2-amino-7-fluorobenzo[d]thiazol-4-yl)-8-fluoro-2-(((2R,7aS)-2-fluorotetrahydro-1H-pyrrolizin-7a(5H)-yl)methoxy)-6-(trifluoromethyl)quinazolin-4-yl)-2,5-dimethylpiperazin-1-yl)prop-2-en-1-one]
4 | 6.00 to 7.00 | C=CC(=O)N1CC(N(C)c2nc(OC[C@@]34CCCN3C[C@H](OC)C4)nc3c(F)c(-c4ccc(F)c5sc(N)nc45)c(C(F)(F)F)cc23)C1 [Compound 201]
5 | > 7.00 | C=CC(=O)N1C[C@@H](F)[C@@H](N(C)c2nc(OC[C@@]34CCCN3C[C@H](F)C4)nc3c(C#N)c(-c4ccc(F)c5sc(N)c(C#N)c45)c(Cl)cc23)C1 [Compound 379]
6 | > 7.00 | C=CC(=O)N1CC[C@@H](N(C)c2nc(N3CC(N4CC5(CC5)C4)C3)nc3c(F)c(-c4ccc(F)c5sc(N)c(C#N)c45)c(C(F)(F)F)cc23)C1 [Compound 340]
7 | > 7.00 | C=CC(=O)N1C[C@@H](F)[C@@H](N(CC)c2nc(OC[C@@]34CCCN3C[C@H](F)C4)nc3c(F)c(-c4ccc(F)c5sc(N)c(C#N)c45)c(C(F)(F)F)cc23)C1 [Compound 362]
8 | > 7.00 | N#CN1CC(Nc2ncnc3c(F)c(-c4ccc(F)c5sc(N)nc45)c(C(F)(F)F)cc23)C1 [Compound 45]
9 | > 7.00 | C=CC(=O)N1C[C@@H](F)[C@@H](N(CC)c2nc(OCC34CCCN3CCC4)nc3cc(-c4ccc(F)c5sc(N)c(C#N)c45)c(C(F)(F)F)cc23)C1 [Compound 376]
10 | < 6.00 | CC#CC(=O)N1CC(Nc2nc(OC[C@@H]3CCCN3C)nc3c(F)c(-c4ccc(F)c5sc(N)nc45)c(Cl)cc23)C1 [Compound 92, 1-[3-[[7-(2-amino-7-fluoro-1,3-benzothiazol-4-yl)-6-chloro-8-fluoro-2-[[(2S)-1-methylpyrrolidin-2-yl]methoxy]quinazolin-4-yl]amino]azetidin-1-yl]but-2-yn-1-one]
11 | 6.00 to 7.00 | C=CC(=O)N1CCN(c2nc(OCC34CCCN3CCC4)nc3c(F)c(-c4ccc(F)c5sc(N)nc45)c(C(F)F)cc23)CC1 [Compound 246]
12 | < 6.00 | C=CC(=O)N1CC(Nc2nc(OC[C@@H]3CCCN3C)nc3c(F)c(-c4ccc(F)c5sc(N)nc45)c(Cl)cc23)C1 [Compound 23, 1-(3-((7-(2-amino-7-fluorobenzo[d]thiazol-4-yl)-6-chloro-8-fluoro-2-(((S)-1-methylpyrrolidin-2-yl)methoxy)quinazolin-4-yl)amino)azetidin-1-yl)prop-2-en-1-one]
13 | 6.00 to 7.00 | C=CC(=O)N1CCC(N(CC)c2nc(OC[C@@H]3C[C@@H](F)CN3C)nc3cc(-c4ccc(F)c5sc(N)c(C#N)c45)c(C#N)cc23)[C@H]1COC (stereo partly shown) [Compound 471]
14 | < 6.00 | C=CC(=O)N1CC[C@@H](N(C)c2nc(OCC)nc3c(F)c(-c4ccc(F)c5sc(N)c(C#N)c45)ccc23)[C@H]1C [Compound 463]
15 | > 7.00 | C=CC(=O)N1CCN(c2nc(OC[C@@]34CCCN3C[C@H](F)C4)nc3c(F)c(-c4ccc(F)c5sc(N)c(C#N)c45)c(C(F)(F)F)cc23)C[C@H]1C [Compound 318]
16 | > 7.00 | C=CC(=O)N1CCC(N(C)c2nc(OC[C@@H]3CC4(CC4)CN3C)nc3c(F)c(-c4ccc(F)c5sc(N)c(C#N)c45)ccc23)[C@H]1C (stereo partly shown) [Compound 436]
17 | > 7.00 | C=CC(=O)N1CCN(c2nc(OC[C@@]34CCCN3C[C@H](F)C4)nc3c(F)c(-c4ccc(F)c5sc(N)nc45)c(C(F)(F)F)cc23)CC1 [Compound 194]

Same assay, conditions: pERK inhibition IC50, NCI-H358 cells, 30 min incubation; read-out: PERK in H358 cell

Row | pIC50 | SMILES
18 | 6.00 to 7.00 | C=CC(=O)N1CC[C@@H](N(C)c2nc(OC[C@@H]3C[C@@H](F)CN3C)nc3c(F)c(-c4ccc(F)c5sc(N)nc45)c(C(F)(F)F)cc23)C1 (atropisomer, axis not shown) [Compound 232]
19 | > 7.00 | C=CC(=O)N1C[C@H](C)N(c2nc(OC[C@@]34CCCN3C[C@H](F)C4)nc3c(F)c(-c4ccc(F)c5sc(N)nc45)c(C(F)(F)F)cc23)C[C@H]1C (atropisomer, axis not shown) [Compound 268]
